These results are taken from ChEMBL document CHEMBL5257050, “Structure Revisions of Phenolic Bisabolane Sesquiterpenes and a Ferroptosis Inhibitor from the Marine-Derived Fungus Aspergillus versicolor YPH93” (J Nat Prod, 2023).

SMILES strings stand for the structures. Active and inactive are the calls of the source. No cut-off for these calls is given here.

Experiment [1] in a line: Antioxidant activity assessed as DPPH radical scavenging activity at 10 uM measured for 30 mins relative to control. The experiment is classed as functional. Background: Loss of DPPH colour is used to gauge radical scavenging.
Experiment [2] has as its system HT-1080. The experiment is described as follows: Cytotoxicity against human HT-1080 cells assessed as reduction in cell viability at 50 uM measured for 48 hrs by CCK-8 assay. The format is functional, cell-based. A general note: Tetrazolium dyes change colour on reduction, which living cells bring about.
Experiment [3] has as its system CCRF-CEM. The experiment is described as follows: Anti-necroptosis activity against TNFalpha-induced human CCRF-CEM cells assessed as cell viability at 10 uM pretreated for 0.5 hrs followed by TNFalpha stimulation by Cell-titer-glo assay. The format is functional, cell-based.
The subject of experiment [4] is CCRF-CEM. The experiment is described as follows: Induction of necrosis in H2O2-induced human CCRF-CEM cells at 10 uM pretreated for 0.5 hrs followed by H2O2 stimulation by Cell-titer-glo assay. The experiment is classed as functional, cell-based.
The subject of experiment [5] is HT-1080. The experiment is described as follows: Anti-ferroptotic activity against erastin/RSL3-induced ferroptosis in human HT-1080 cells assessed as cell viability at 1 uM pretreated for 0.5 hrs followed by erastin/RSL3 stimulation by Cell-titer-glo assay. The experiment is classed as functional, cell-based.
For experiment [6], the system named is HT-1080. The experiment is described as follows: Anti-ferroptotic activity against erastin-induced ferroptosis in human HT-1080 cells assessed as cell viability at 10 uM pretreated for 0.5 hrs followed by erastin stimulation by Cell-titer-glo assay. The experiment is classed as functional. Particulars: read-out: Activity.
For experiment [7], the system named is CCRF-CEM. The experiment is described as follows: Anti-ferroptotic activity against RSL3-induced ferroptosis in human CCRF-CEM cells assessed as cell viability at 10 uM pretreated for 0.5 hrs followed by RSL3 stimulation by Cell-titer-glo assay. The format is functional, cell-based.
Experiment [8] has as its system HT-1080. The experiment is described as follows: Anti-ferroptotic activity against erastin/RSL3-induced ferroptosis in human HT-1080 cells assessed as cell viability at 10 uM pretreated for 0.5 hrs followed by erastin/RSL3 stimulation by Cell-titer-glo assay. The format is functional, cell-based.
In experiment [9] the test system is HT-1080. The experiment is described as follows: Anti-ferroptotic activity against RSL3-induced ferroptosis in human HT-1080 cells assessed as cell viability pretreated for 0.5 hrs followed by RSL3 stimulation by Cell-titer-glo assay. The experiment is classed as functional, cell-based.
Experiment [10] concerns HT-1080. The experiment is described as follows: Anti-ferroptotic activity against erastin-induced ferroptosis in human HT-1080 cells assessed as cell viability pretreated for 0.5 hrs followed by erastin stimulation by Cell-titer-glo assay. The experiment is classed as functional, cell-based.

As for `C[C@@]1(CO)CCC[C@](C)(c2ccc(C(=O)O)cc2O)O1` (relative stereo), the result in experiment [1] was Active. In addition, the outcome in the experiment with HT-1080 [2], in the experiment with CCRF-CEM [3] and in the experiment with CCRF-CEM [4] was inactive.
In the case of `Cc1cccc(O)c1-c1cc(O)c(C)c(=O)o1`, the result in experiment [1] was Active. For the same compound, the outcome in the experiment with HT-1080 [2], in the experiment with CCRF-CEM [3] and in the experiment with CCRF-CEM [4] was inactive.
Consider `CC1(C)O[C@@](C)(c2ccc(C(=O)O)cc2O)[C@H](O)C[C@@H]1O` (relative stereo), for which the result in [1] was Active. Besides, the result in the experiment with HT-1080 [2], in the experiment with CCRF-CEM [3] and with CCRF-CEM [4] was inactive.
For `CC(C)(O)CCCC(C)(O)c1ccc(C(=O)O)cc1O` (stereo not given), in experiment [1], the result was Active. Further, the outcome in the experiment on HT-1080 [2], in the experiment with CCRF-CEM [3] and in the experiment on CCRF-CEM [4] was inactive.
Consider `C[C@]1(c2ccc(C(=O)O)cc2O)CC[C@H](O)[C@](C)(CO)O1` (relative stereo), for which the result in [1] was Active. Moreover, the result in the experiment with HT-1080 [2], in the experiment on CCRF-CEM [3] and in the experiment on CCRF-CEM [4] was inactive.
In the case of `CCOC(=O)c1ccc(NC2CCCCC2)c(N)c1`, the outcome (in [1]; with HT-1080 [5]) was Active.
As to `C[C@]1(CO)CCC[C@](C)(c2ccc(C(=O)O)cc2O)O1`, the result in experiment [1] was Active. Also, the outcome in the experiment on HT-1080 [2], in the experiment on CCRF-CEM [3] and in the experiment with CCRF-CEM [4] was inactive.
In the case of `CC(=O)OC[C@@]1(C)CCC[C@@](C)(c2ccc(C(=O)O)cc2O)O1`, the result in experiment [1] was Active. In addition, the result in the experiment with HT-1080 [2], in the experiment with CCRF-CEM [3] and in the experiment on CCRF-CEM [4] was inactive. In the experiment with HT-1080 [6], the viability at 10 µM came to 50%.
Take `C/C(=C\CCC(C)(O)CO)c1ccc(C(=O)O)cc1O` (stereo not given): the result (in experiment [1]; in the experiment on CCRF-CEM [7]; in the experiment on HT-1080 [8]) was Active. The outcome with HT-1080 [2], in the experiment with CCRF-CEM [3] and with CCRF-CEM [4] was inactive. Besides, the EC50 (usually the concentration that produces a half-maximal response) in the experiment on HT-1080 [9] was found to be 2.1 µM; in the experiment with HT-1080 [10], 3.4 µM.
With `CC(=O)OCC(C)(O)CCCC(C)(O)c1ccc(C(=O)O)cc1O` (stereo not given), in [1], the outcome was Active. In addition, the outcome in the experiment with HT-1080 [2], in the experiment with CCRF-CEM [3] and in the experiment on CCRF-CEM [4] was inactive.
Regarding `CC(=O)OC[C@@]1(C)CCC[C@](C)(c2ccc(C(=O)O)cc2O)O1` (relative stereo), in [1], the result was Active. Further, the result in the experiment with HT-1080 [2], with CCRF-CEM [3] and with CCRF-CEM [4] was inactive.
Turning to `CC(O)(CO)CCCC(C)(O)c1ccc(C(=O)O)cc1O` (stereo not given), the result in experiment [1] was Active. Besides, the outcome in the experiment with HT-1080 [2], in the experiment on CCRF-CEM [3] and with CCRF-CEM [4] was inactive.
Consider `C/C(=C/CCC(C)(C)O)c1ccc(C(=O)O)cc1O`, for which the outcome in [1] was Active. The outcome in the experiment on HT-1080 [2], with CCRF-CEM [3] and in the experiment with CCRF-CEM [4] was inactive.
Consider `CC(CCCC(C)(O)c1ccc(C(=O)O)cc1O)C(=O)O` (stereo not given), for which, in [1], the result was Active. For the same compound, the result in the experiment on HT-1080 [2], with CCRF-CEM [3] and in the experiment on CCRF-CEM [4] was inactive.
Turning to `CC1(c2ccc(C(=O)O)cc2O)CCC(=O)O1` (stereo not given), the outcome in [1] was Active. Besides, the result in the experiment on HT-1080 [2], with CCRF-CEM [3] and in the experiment with CCRF-CEM [4] was inactive.
For the compound `CC1(C)O[C@@](C)(c2ccc(C(=O)O)cc2O)C[C@H](O)[C@@H]1O` (relative stereo), the outcome in experiment [1] was Active. The outcome in the experiment on HT-1080 [2], with CCRF-CEM [3] and in the experiment with CCRF-CEM [4] was inactive.
Take `CC1(C)CCC[C@](C)(c2ccc(C(=O)O)cc2O)O1`: the result in experiment [1] was Active. In addition, the result in the experiment on HT-1080 [2], in the experiment on CCRF-CEM [3] and in the experiment with CCRF-CEM [4] was inactive.
For the compound `CC1(C)O[C@@](C)(c2ccc(C(=O)O)cc2O)C[C@H](O)[C@H]1O` (relative stereo), in experiment [1], the result was Active. The result in the experiment with HT-1080 [2], with CCRF-CEM [3] and with CCRF-CEM [4] was inactive.
